Reference: patent US8987316B2, “Isocyanate and isothiocyanate compounds for cancer treatment” (priority 2011, dated 2015)

Legend:
[1] = Necrotic changes in the kidneys of treated animals; type: in vivo, nude mice; conditions: affected animals/animals
Method: (§1) All the tests were carried out using female nude mice under standard conditions for the keeping of animals with controlled illumination and temperature. The animals were given water and food as desired.
No necrotic changes were found in the kidneys of the animals treated with the compound according to the invention. This confirms the excellent tolerability profile of the compounds according to the invention.

Breast tumors (MAXF 401) = assay: Breast tumor MAXF 401 xenograft in nude mice, T/C value and mortality; type: in vivo; conditions: ip twice weekly over 5 weeks
Method: as §1
(§2) Breast tumors (MAXF 401) were implanted subcutaneously into the rear members of the mice aged 10 weeks. The increase in the volume of the individual tumors was measured using microcallipers, and the size of the tumor was calculated according to the formula a*b^2/2 (where a is the largest diameter of the tumor and b is the vertical axis). When the tumor volume had increased to 80-120 mm^3, the animals were allocated at random into test groups of in each case 6 animals.
The test compound (in the form of sodium salts) was dissolved in a saline solution, and 5% Klucel (hydroxypropylcellulose) was added in order to dissolve the test compound in the carrier. The compound was administered by intraperitoneal injection. A volume of 10 ml/kg body weight was injected. […] The tumor volume and the body weight were checked twice weekly, and the relative tumor volumes were calculated as the […]. […]
On the basis of the relative tumor volumes of the animals treated with the test compound compared with the tumor volumes of the controls treated only with the carrier, the T/C values were calculated and were used as the index of anti-tumor activity. […]

MAXF-401 xenograft tumor = assay: Dose-dependent anti-tumor activity in the MAXF-401 xenograft tumor model; type: in vivo
Method: as §2
The anti-tumor activity of the substance of Example 2a (sodium salt) was tested in a xenograft tumor panel. Therefore, xenografts of human tumors derived from the mentioned cancers were implanted in nude mice. The implantation and the determination of tumor volumes were carried out as described hereinbefore. Groups of 5 to 8 animals were used. The test compound was administered by ip injection twice weekly in the mentioned doses in the form of the sodium salt as an aqueous solution.
Therein, the anti-tumor activity of the compound of Example 2a (sodium salt) was examined in the MAXF-401 xenograft tumor model in the nude mouse. Subcutaneous implantation of the tumor and the determination of the tumor volume was carried out as described hereinbefore. The test compound was administered by ip injection twice weekly in the mentioned doses in the form of the sodium salt as an aqueous solution over a period of 4 weeks. […] A dose of 100 mg/kg was determined as the threshold dose, ≧200 mg/kg as the ED90 of the anti-tumor activity.

[2] = tested on: CXF280 xenograft tumor (colon carcinoma); assay: Dose-dependent anti-tumor activity in the CXF280 colon carcinoma xenograft model; type: in vivo
Method: as §2
The anti-tumor activity of the compound of Example 2a was thereby determined in the CXF280 xenograft tumor model in the nude mouse. Subcutaneous implantation of the tumor and the determination of tumor volumes were carried out as described hereinbefore. The test substance was administered by ip injection twice weekly in the mentioned doses in the form of the sodium salt as an aqueous solution, over a period of 4 weeks. Groups of in each case 8 animals were used.

[3] = MAXF-401, ip twice weekly over 4 weeks, sodium salt

O=C(O)CCOc1ccc(C(=O)c2ccc(N=C=S)cc2)cc1 [Example 2a]
Acute single-cell necrosis [1]: 0/9 | Focal tubular necrosis [1]: 0/9 | T/C value (Breast tumors (MAXF 401); MAXF 401 breast tumor, sodium salt, ratio of tumor size treated/untreated, 100% would be no activity): 1.7 | Mortality (Breast tumors (MAXF 401); dead animals/animals in the group): 0/6 | tolerability (MAXF-401 xenograft tumor; MAXF-401, dose range used): well tolerated | tumor response under therapy (MAXF-401 xenograft tumor; MAXF-401, dose ≧200 mg/kg): remission of the tumors was observed | ED90 of the anti-tumor activity (MAXF-401 xenograft tumor; [3]): ≥ 200 mg/kg | threshold dose of the anti-tumor activity (MAXF-401 xenograft tumor; [3]): 100 mg/kg | tumor growth inhibition and remission ([2]; CXF280, dose group of 200 mg/kg and 300 mg/kg): complete inhibition of tumor growth and the induction of remissions to obliteration of the tumor | tolerability ([2]; CXF280, dose range used): well tolerated | weight loss in the animals ([2]; CXF280, dose range used): not associated with a significant weight loss | anti-tumor action ([2]; CXF280, doses of 100, 200 or 300 mg/kg ip twice weekly over 4 weeks): pronounced anti-tumor action | ED90 doses ([2]; CXF280, ip twice weekly over 4 weeks): 200 mg/kg
